Assay results: patent publication US7262151B2, “Methods and compositions for production of lipo-chito oligosaccharides by rhizobacteria” (McGill University, priority 2001, dated 2007)
Like-named read-outs stand apart in the source and are kept apart here.

Columns and labels:
Type in all cases: cell-based
[1] = system: nod genes in Bradyrhizobium japonicum strain USDA3; details: for inhibitory or inducing activity in combinations (β-galactosidase assay): 25 and 50 μM with JA, MeJA and genistein (5 μM), FIGS. 3, 4, and 5; for nod gene induction (β-galactosidase activity): USDA3 (GG4), control 362 ± 25; for induction of nod genes (β-galactosidase activity vs control without inducer), in words: all concentrations, FIG. 1; for expression of nod genes (β-galactosidase assay), in words: 5-100 μM tested, FIG. 6; for nod gene induction at optimum concentration compared with optimum JA and MeJA concentrations / optimum concentration for nod gene induction: USDA3, β-galactosidase assay
Protocol: Bradyrhizobium japonicum strain USDA3, harboring plasmid GG4, was used in the experiment. Plasmid GG4 contains a translational fusion between B. japonicum nod Y open-reading frame and lac Z of Escherichia coli.
(§1) Bacteria were grown in yeast extract mannitol (YEM) medium (mannitol 10.0 g, K2HPO4 0.5 g, MgSO4.7H2O 0.2 g, NaCl 0.1 g, and yeast extract 0.4 g dissolved in 1000 mL of dd H2O). In order to ensure the maintenance of the strains, tetracycline was added to the bacterial cultures at a concentration of 20 mg 1^−1. One hundred mL cultures of each strain, in 250 mL flasks, were shaken at 150 rev min^−1 at 30° C. for 3-5 days and then subcultured into 400 mL of fresh medium in 1000 mL flasks. The cultures were incubated until the OD620 reached 0.2-0.3. The cultures were then divided into 5 mL tubes (sterilized).
(§2) Stock solutions of various inducers: genistein, salicylic acid and acetylsalicylic acid made in methanol and linolenic, linoleic, and jasmonic acid and methyl jasmonate were made in ethanol, and an appropriate amount of these inducers was added into the tubes before addition of bacterial culture. In the tubes, the final concentration of all the inducers was maintained as 5, 10, 25, 50 and 100 μM. Tubes were collected after 18 h of incubation and stored at −20° C. until the β-galactosidase activity was measured. Genistein (4′,5,7, trihydroxyisoflavone, purity 98%,), linolenic acid (9,12,15-Octadecatrienoic acid, purity 99%), linoleic acid (cis-9, cis-12-Octadecadienoic acid, purity 99%), jasmonic acid (±Jasmonic acid, C12H18O3) and salicylic acid (2-hydroxybenzoic acid, purity 99.0%) were obtained from Sigma, while acetylsalicylic acid (C9H8O4, 99% purity) was obtained from Acros and methyl jasmonate (95% purity) was obtained from Aldrich Chemical Company, Inc.
(§3) β-galactosidase is an enzyme which hydrolyzes β-D-galactosides. The activity of this enzyme can easily be measured with colorless substrates, which upon hydrolysis produce colored products. O-nitrophenyl-β-galactoside (ONPG) is a colorless compound and is converted to galactose and O-nitrophenol in the presence of β-galactosidase. The O-nitrophenol is yellow and can be measured by its absorption at 420 nm. In the present study, nod gene expression was indirectly measured by β-galactosidase activity following the method of Miller (1972) as modified by Stachel et al, (1985). Briefly, 0.5 mL culture was mixed with 2×Z buffer (Na2HPO4.7H2O, 16.1 g, NaH2PO4.H2O, 5.5 g, KCl 0.75 g, MgSO4.7H2O 0.246 g, β-mercaptoethanol 2.7 g, pH 7.0 dissolved in 500 mL water) and 40 μL toluene and vortexed for 10 seconds. The culture was then incubated in a water bath at 37° C. for 30 minutes and then 0.2 mL of O-nitrophenyl β-D-galactopyranoside (ONPG) was added at a concentration of 4 mg mL^−1. The cultures were incubated again in the water bath until the color of the culture changed. The reaction time was recorded and the reaction was stopped with 1M Na2CO3. After centrifugation at 10,000 rpm for 4 minutes, spectrophotometric reading at OD420 and OD600 were taken and the β-galactosidase activity was measured (β-galactosidase activity=OD420*1000/OD600*T*V, where T is the reaction time and V is the volume of the bacterial culture used for enzyme assay).
The experiment was designed in a randomized complete block design (RCBD) with three replicates. […] Data are shown from the second experiment. Statistical analysis of the data was done with analysis of variance using the Statistical Analysis System computer package (SAS Institute, 1988). Comparisons among treatment means were made with an ANOVA protected LSD at the 0.05 level of statistical significance.

[2] = system: nod genes in Bradyrhizobium japonicum strain USDA31; experiment: nod gene induction, β-galactosidase assay, strain USDA31 (GG1)
Protocol: as §1, §2, §3
(§4) The effect of 0-100 μM concentrations of each of acetylsalicylic acid, salicylic acid, jasmonic acid, methyl jasmonate, and genistein, on induction of nod gene expression in Bradyrhizobium japonicum strains USDA31, USDA76, USDA121, and USDA3, was evaluated in accordance with the β-galactosidase assay of Experiment 1 in Example 1 above.

[3] = system: nod genes in Bradyrhizobium japonicum strain USDA121; experiment: nod gene induction, β-galactosidase assay, strain USDA121 (GG3); details: control 476.8 ± 86.6
Protocol: as §1, §2, §3, §4

[4] = system: nod genes in Bradyrhizobium japonicum strain USDA76; experiment: nod gene induction, β-galactosidase assay, strain USDA 76 (GG2); details: control 411.8 ± 26.8
Protocol: as §1, §2, §3, §4

[5] = 5 μM, control without inducer 522.6 ± 15.9

Structure (SMILES)	inhibitory or inducing activity in combinations (β-galactosidase assay) [1]	nod gene induction (β-galactosidase activity) ([1]; 5 μM)	nod gene induction (β-galactosidase activity) ([1]; 10 μM)	nod gene induction (β-galactosidase activity) ([1]; 25 μM)	nod gene induction (β-galactosidase activity) ([1]; 50 μM)	nod gene induction (β-galactosidase activity) ([1]; 100 μM)	induction of nod genes (β-galactosidase activity vs control without inducer), in words [1]	nod gene induction (β-galactosidase activity) [2, 5]	nod gene induction (β-galactosidase activity) ([2]; 10 μM, control 522.6 ± 15.9)	nod gene induction (β-galactosidase activity) ([2]; 25 μM, control 522.6 ± 15.9)	nod gene induction (β-galactosidase activity) ([2]; 50 μM, control 522.6 ± 15.9)	nod gene induction (β-galactosidase activity) ([2]; 100 μM, control 522.6 ± 15.9)	nod gene induction (β-galactosidase activity) ([3]; 5 μM)	nod gene induction (β-galactosidase activity) ([3]; 10 μM)	nod gene induction (β-galactosidase activity) ([3]; 25 μM)	nod gene induction (β-galactosidase activity) ([3]; 50 μM)	nod gene induction (β-galactosidase activity) ([3]; 100 μM)	nod gene induction (β-galactosidase activity) ([4]; 5 μM)	nod gene induction (β-galactosidase activity) ([4]; 10 μM)	nod gene induction (β-galactosidase activity) ([4]; 25 μM)	other results
CC(=O)Oc1ccccc1C(=O)O [ASA, acetylsalicylic acid]	did not show inhibitory or inducing activity	396 ± 14.7	372 ± 16	382 ± 16	464 ± 7	527 ± 36	did not show any activity	636.5 ± 66.9	563.3 ± 37.9	719.5 ± 75.2	676.6 ± 85.8	384.8 ± 34.4	422.6 ± 64.9	425 ± 39.4	479.9 ± 88.6	445.4 ± 99	325.6 ± 58.8	363.2 ± 34.1	341 ± 21.1	418.8 ± 59.5	nod gene induction (β-galactosidase activity) ([4]; 50 μM): 376.2 ± 37.2; nod gene induction (β-galactosidase activity) ([4]; 100 μM): 413.1 ± 85.5
O=C(O)c1ccccc1O [SA, 2-hydroxybenzoic acid]	did not show inhibitory or inducing activity	398 ± 13	402 ± 33	414 ± 17	435 ± 26	515 ± 583	did not show any activity	587 ± 66.6	536.4 ± 40.1	522.4 ± 65.3	476.1 ± 28.4	519.3 ± 43.5	404.1 ± 62.5	472.7 ± 54.3	435.8 ± 69.2	434.2 ± 26.3	369.8 ± 114.9	562.2 ± 26.6	411.8 ± 75.3	473 ± 58.3	nod gene induction (β-galactosidase activity) ([4]; 50 μM): 464.6 ± 36.2; nod gene induction (β-galactosidase activity) ([4]; 100 μM): 430.7 ± 55.3
CCCCC/C=C\C/C=C\CCCCCCCC(=O)O [linoleic acid, (Z,Z)-9,12-Octadecadienoic acid]	–	–	–	–	–	–	–	–	–	–	–	–	–	–	–	–	–	–	–	–	expression of nod genes (β-galactosidase assay), in words [1]: induced the expression of nod genes; nod gene induction at optimum concentration compared with optimum JA and MeJA concentrations [1]: lower; optimum concentration for nod gene induction [1]: 50 µM
CC/C=C\C/C=C\C/C=C\CCCCCCCC(=O)O [linolenic acid, (Z,Z,Z)-9,12,15-Octadecatrienoic acid]	–	–	–	–	–	–	–	–	–	–	–	–	–	–	–	–	–	–	–	–	expression of nod genes (β-galactosidase assay), in words [1]: induced the expression of nod genes; nod gene induction at optimum concentration compared with optimum JA and MeJA concentrations [1]: lower; optimum concentration for nod gene induction [1]: 50 µM
